Like-named read-outs stand apart in the source and are kept apart here.
Legend:
progesterone receptor = biological target: T1, progesterone receptor (Bos taurus, UniProt F1N712); assay: Inhibition of 3H-progesterone binding to bovine uteral progesterone receptors
T1 construct: from tissue; host or cells: bovine uterus cytosol
T1 sequence (F1N712 1-914): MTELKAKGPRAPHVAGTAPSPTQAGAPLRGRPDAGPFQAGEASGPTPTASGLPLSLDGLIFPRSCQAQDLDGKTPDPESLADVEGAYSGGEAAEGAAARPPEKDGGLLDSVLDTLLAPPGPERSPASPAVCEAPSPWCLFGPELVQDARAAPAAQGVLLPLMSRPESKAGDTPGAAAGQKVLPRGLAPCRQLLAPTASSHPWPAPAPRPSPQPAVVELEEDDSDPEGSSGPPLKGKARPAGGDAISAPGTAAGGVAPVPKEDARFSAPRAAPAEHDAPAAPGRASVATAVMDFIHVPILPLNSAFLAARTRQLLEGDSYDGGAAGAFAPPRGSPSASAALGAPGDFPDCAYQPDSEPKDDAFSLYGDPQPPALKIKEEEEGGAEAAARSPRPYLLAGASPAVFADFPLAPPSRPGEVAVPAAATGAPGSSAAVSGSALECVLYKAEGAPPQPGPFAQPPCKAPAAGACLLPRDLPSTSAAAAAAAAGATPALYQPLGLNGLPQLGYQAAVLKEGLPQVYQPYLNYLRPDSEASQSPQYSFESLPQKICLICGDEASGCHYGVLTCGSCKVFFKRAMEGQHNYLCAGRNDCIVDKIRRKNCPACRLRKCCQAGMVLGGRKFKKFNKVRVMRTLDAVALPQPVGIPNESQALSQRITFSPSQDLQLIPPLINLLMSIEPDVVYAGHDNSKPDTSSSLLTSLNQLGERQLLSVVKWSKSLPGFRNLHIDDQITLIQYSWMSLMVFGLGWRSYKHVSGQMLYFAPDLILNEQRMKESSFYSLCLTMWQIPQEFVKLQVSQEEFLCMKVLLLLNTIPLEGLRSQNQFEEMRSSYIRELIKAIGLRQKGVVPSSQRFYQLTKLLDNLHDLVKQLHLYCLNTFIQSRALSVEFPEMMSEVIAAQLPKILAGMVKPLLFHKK
How it was run: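 Bovine uterine cytosol served as the progesterone receptor source. Compounds were scored by their inhibition of ^3H-progesterone binding.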

[1] = biological target: GABA receptor-chloride ionophore complex (GR complex); assay: [35S]TBPS binding modulation assay
open-field activity = assay: Open-field activity test; assay type: in vivo, mice (male N.I.H. Swiss-Webster); details: for total distance, open-field: 20 mg/kg, 10 min, vehicle 2004.6 ± 134.6; for effect on open-field activity: steroids 20 mg/kg, diazepam 10 mg/kg
Source text: The light/dark transition test (Crawley and Goodwin, 1980) is based on the observation that rodents naturally tend to explore novel environments, but open, brightly lit arenas are aversive to the rodents and inhibit exploratory behavior (Christmas and Maxwell, 1970; File, 1980). […] Similar to the light/dark transition test, the open-field test measures the antagonism between the tendency to explore a novel environment and the tendency to remain still in an aversive environment (brightly lit arena). […] The open-field test provides a simple, non-punished assessment of the potential anxiolytic properties of novel compounds. Finally, 3α-OH-DHP was tested for anxiolytic properties in a Vogel conflict paradigm. The ability of BZs to attenuate the suppression of behavior by punishment in conflict paradigms is well established (Gellar et al., 1962; Vogel et al., 1971).
Male N.I.H. Swiss-Webster mice (Harlan) weighing 15-20 g were used in all experiments. The mice were housed 4/cage in polyethylene cages with sawdust bedding. The colony room was environmentally controlled (22° C.) with a 12 hr. light/dark cycle (0600-1800 hrs.). The mice had free access to food and water. The experiments were run from 0700-1500 hrs. and groups were counterbalanced for time of day effects.
As a secondary measure of anxiolytic effects, naive mice were placed in the center of a large, brightly lit plexiglass box (42×42×30.5 cm) and the total distance traveled was measured during a 10 min. test period. […] The Digiscan Activity Monitor (Omnitech Electronics, Columbus, Ohio) includes 16 photobeams that surround the box. The activity monitor is linked to a computer through a Digiscan Analyzer (Omnitech Electronics) and the data is analyzed using the Integrated Lab Animal Monitoring System (Omnitech Electronics). The mice were administered drugs as described for light/dark transitions.
2-Hydroxypropyl β-cyclodextrin Diazepam and chlordiazepoxide are available from Sigma, Co. (St. Louis, Mo.). CGS-8216 was obtained from Ciba-Geigy (Summit, N.J.). All drugs were dissolved in 20% β-cyclodextrin in water and sonicated overnight. All drugs were administered intraperitoneally in a volume of 100 μL/20 g. CGS-8216 was administered subcutaneously in a volume of 100 μL/20 g.
The vehicle control data were analyzed across test days using an 1-way analysis of variance (ANOVA). […] The dose-response curves were then analyzed using an 1-way ANOVA, followed by Dunnett's t-test for individual comparisons between doses and control. The open-field and habituated locomotor data were analyzed using ANOVA followed by Dunnett's t-test. […] All data is expressed as the mean±S.E.M.

[2] = tested on: metrazol induced convulsions; assay: Inhibition of metrazol induced convulsions (Table 2); assay type: in vivo, mice; details: Mus musculus; inhibition of metrazol induced convulsions; read-out: Anti-Metrazol ED50
Experimental: Experiments were also performed to determine the physiological relevance of these interactions by measuring the ability of the compound of and used in the invention to modulate TBPS-induced convulsions in Swiss-Webster mice. […] The time to onset of myoclonus (presence of forelimb clonic activity) induced by TBPS was determined by observing each mouse for a period of 45 minutes. Significant differences between the time to onset in control mice vs. steroid-treated mice were determined by Student's t-test. […] The number of animals with tonic and/or clonic convulsions was recorded. In the maximal electroshock test, 50 mA of current at 60 Hz was delivered through corneal electrodes for 200 msec to induce tonic seizure. […] The ED50 (the dose at which the half-maximal effect occurs) was determined for each screen.
Adult male CFI mice (20-30g) were used in these studies. […] Percent protection against metrazol-induced seizures was plotted against time after administration of the compound. […] Ten to twelve mice were used per dose of test drug. […] The number of animals with tonic and/or clonic convulsions was recorded. The ability of the steroid to abolish the tonic component was defined as the endpoint. Sedative potential was determined by a rotorod test where the number of mice staying on a rotating (6 rpm) rod for ≥1 min. in each of three trials was determined.

[3] = read-out: % of inhibition of 3H-progesterone binding, A, competitor 10^-5 M, 0.15 nM 3H-progesterone
[4] = read-out: % of inhibition of 3H-progesterone binding, A, competitor 10^-6 M, 0.15 nM 3H-progesterone
[5] = read-out: % of inhibition of 3H-progesterone binding, B, competitor 10^-5 M, 0.25 nM 3H-progesterone
[6] = read-out: % of inhibition of 3H-progesterone binding, B, competitor 10^-6 M, 0.25 nM 3H-progesterone
[7] = read-out: IC50, inhibition of [35S]-TBPS binding, +5 μM GABA, in the presence of 5 μM GABA

SMILES | inhibition at 10 µM (progesterone receptor; [3]) [%] | inhibition at 1 µM (progesterone receptor; [4]) [%] | inhibition at 10 µM (progesterone receptor; [5]) [%] | inhibition at 1 µM (progesterone receptor; [6]) [%] | IC50 [1, 7] [µM] | Max. Inhib., maximal % of specifically bound [35S]-TBPS displaced ([1]; saturating concentrations of test compound) [%] | total distance, open-field (open-field activity) [cm] | effect on open-field activity (open-field activity) | ED50 [2] [mg/kg] | IC50 ([1]; read-out: IC50, inhibition of [35S]-TBPS binding, No GABA, washed synaptoneurosomes, no GABA added) [µM]
C[C@]12CC[C@@H](O)C[C@@H]1CC[C@@H]1[C@@H]2CC[C@]2(C)[C@@H](C(=O)CO)CC[C@@H]12 [Example 5α-THDOC, 3α,21-dihydroxy-5α-pregnan-20-one] | 35 | 13 | 28 | 5 | 0.08 | 100 | 7328.4 ± 769.5 | significant (p<0.01) increases in activity | 8 | –
CC(=O)[C@H]1CC[C@H]2[C@@H]3CC[C@H]4C[C@H](O)CC[C@]4(C)[C@H]3CC[C@]12C [Example 3α-OH-DHP, 3α-hydroxy-5α-pregnan-20-one] | 41 | 14 | 40 | 2 | 0.038 | – | 5344.9 ± 754.5 | significant (p<0.01) increases in activity | 5 | 0.23
